From patent US20130296311A1, “INHIBITORS OF HCV NS5A” (PRESIDIO PHARMACEUTICALS, INC., priority 2010, published 2013)

Tested on: HCV 1b_Huh-Luc/Neo-ET cell line persistently expressing a bicistronic genotype 1b replicon in Huh 7 cells
Experiment: HCV replicon assay (luciferase readout, 72 h)
Assay type: cell-based, HCV genotype 1b
Conditions: Hepatitis C virus, Huh-7, 72 h, read-out: Inhibition of HCV genotype 1b
Outline: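 EC50 values come from a four-parameter fit of luciferase signal as % of untreated control, repeated across several determinations. The signal is from the HCV 1b_Huh-Luc/Neo-ET replicon line, dosed in triplicate one day post-plating and incubated 72 h before Bright-Glo readout.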

| SMILES | EC50 |
| --- | --- |
| O=C(N[C@@H](C(=O)N1CCC[C@H]1c1ncc(-c2ccc(C#Cc3ccc(-c4cnc([C@@H]5CCCN5C(=O)[C@H](NC(=O)OC5CCOCC5)c5ccccc5)[nH]4)c(F)c3)cc2)[nH]1)c1ccccc1)OC1CCOCC1 [Compound 1014] | < 1 nM |
| COC(=O)N[C@H](C(=O)N1CCC[C@H]1c1ncc(-c2ccc(C#Cc3ccc4nc([C@@H]5CCCN5C(=O)[C@@H](C(C)C)N(C)C)[nH]c4c3)cc2)[nH]1)C(C)C [Compound 1020] | < 1 nM |
| COC(=O)N[C@H](C(=O)N1CCC[C@H]1c1ncc(-c2ccc(C#Cc3ccc4nc([C@@H]5CCCN5C(=O)[C@H](C(C)C)N(C)C)[nH]c4c3)cc2)[nH]1)C(C)C [Compound 1021] | < 1 nM |
| COC(=O)N[C@H](C(=O)N1CCC[C@H]1c1nc2ccc(C#Cc3ccc(-c4cnc([C@@H]5CCCN5C(=O)[C@H](NC(=O)OC)c5ccccc5)[nH]4)cc3)cc2[nH]1)C(C)C [Compound 1022] | < 1 nM |
| COC(=O)N[C@H](C(=O)N1CCC[C@H]1c1ncc(-c2ccc(C#Cc3ccc4nc([C@@H]5CCCN5C(=O)[C@H](NC(=O)OC)c5ccccc5)[nH]c4c3)cc2)[nH]1)C(C)C [Compound 1023] | < 1 nM |
| CC[C@@H](C)[C@H](NC(=O)OC)C(=O)N1CCC[C@H]1c1ncc(-c2ccc(C#Cc3ccc4nc([C@@H]5CCCN5C(=O)[C@@H](NC(=O)OC)[C@H](C)CC)[nH]c4c3)cc2)[nH]1 [Compound 1024] | < 1 nM |
| COC(=O)N[C@H](C(=O)N1CCC[C@H]1c1ncc(-c2ccc(C#Cc3ccc4nc([C@@H]5CCCN5C(=O)[C@@H](NC(=O)OC)C5CCCC5)[nH]c4c3)cc2)[nH]1)C1CCCC1 [Compound 1025] | < 1 nM |
| COC(=O)N[C@H](C(=O)N1CSC[C@H]1c1ncc(-c2ccc(C#Cc3ccc4nc([C@@H]5CCCN5C(=O)[C@@H](NC(=O)OC)C(C)C)[nH]c4c3)cc2)[nH]1)C(C)C [Compound 1026] | < 1 nM |
| COC(=O)N[C@H](C(=O)N1CCOC[C@H]1c1ncc(-c2ccc(C#Cc3ccc4nc([C@@H]5CCCN5C(=O)[C@@H](NC(=O)OC)C(C)C)[nH]c4c3)cc2)[nH]1)C(C)C [Compound 1027] | < 1 nM |
| COC(=O)N[C@@H](C)C(=O)N1CCC[C@H]1c1ncc(-c2ccc(C#Cc3ccc4nc([C@@H]5CCCN5C(=O)[C@H](C)NC(=O)OC)[nH]c4c3)cc2)[nH]1 [Compound 1028] | < 1 nM |
| COC(=O)N[C@H](C(=O)N1CCC[C@H]1c1ncc(-c2ccc(C#Cc3ccc4nc([C@@H]5CCCN5C(=O)[C@@H](NC(=O)OC)C5CC5)[nH]c4c3)cc2)[nH]1)C1CC1 [Compound 1029] | < 1 nM |
| CCC(CC)[C@H](NC(=O)OC)C(=O)N1CCC[C@H]1c1ncc(-c2ccc(C#Cc3ccc4nc([C@@H]5CCCN5C(=O)[C@@H](NC(=O)OC)C(CC)CC)[nH]c4c3)cc2)[nH]1 [Compound 1030] | < 1 nM |
| COC(=O)N[C@H](C(=O)N1CCC[C@H]1c1ncc(-c2ccc(C#Cc3ccc4nc([C@@H]5CCCN5C(=O)[C@@H](NC(=O)OC)[C@H](C)O)[nH]c4c3)cc2)[nH]1)[C@H](C)O [Compound 1031] | < 1 nM |
| COC(=O)N[C@H](C(=O)N1CCCC[C@H]1c1ncc(-c2ccc(C#Cc3ccc4nc([C@@H]5CCCN5C(=O)[C@@H](NC(=O)OC)C(C)C)[nH]c4c3)cc2)[nH]1)C(C)C [Compound 1032] | < 1 nM |
| COC(=O)N[C@H](C(=O)N1CCC[C@H]1c1ncc(-c2ccc(C#Cc3ccc4nc([C@@H]5CCCN5C(=O)[C@@H](NC(=O)OC)C(C)C)[nH]c4c3)nc2)[nH]1)C(C)C [Compound 1033] | < 1 nM |
| CC(C)(C)OC(=O)N1CCCC1c1ncc(-c2ccc(C#Cc3ccc4nc([C@@H]5CCCN5C(=O)OC(C)(C)C)[nH]c4c3)cc2)[nH]1 (stereo partly drawn) [Compound 1034] | 1 to 9.9 nM |
| C(#Cc1ccc2nc([C@@H]3CCCN3)[nH]c2c1)c1ccc(-c2cnc([C@@H]3CCCN3)[nH]2)cc1 [Compound 1035] | 10 to 999 nM |
| CC[C@H](NC(=O)OC)C(=O)N1CCC[C@H]1c1ncc(-c2ccc(C#Cc3ccc4nc([C@@H]5CCCN5C(=O)[C@H](CC)NC(=O)OC)[nH]c4c3)cc2)[nH]1 [Compound 1036] | < 1 nM |
| COC[C@H](NC(=O)OC)C(=O)N1CCC[C@H]1c1ncc(-c2ccc(C#Cc3ccc4nc([C@@H]5CCCN5C(=O)[C@H](COC)NC(=O)OC)[nH]c4c3)cc2)[nH]1 [Compound 1037] | < 1 nM |
| O=S(=O)(c1ccccc1)N1CCC[C@H]1c1ncc(-c2ccc(C#Cc3ccc4nc([C@@H]5CCCN5S(=O)(=O)c5ccccc5)[nH]c4c3)cc2)[nH]1 [Compound 1038] | > 1000 nM |
| CC(C)[C@@H](C(=O)N1CCC[C@H]1c1ncc(-c2ccc(C#Cc3ccc4nc([C@@H]5CCCN5C(=O)[C@H](C(C)C)N5CCOC5=O)[nH]c4c3)cc2)[nH]1)N1CCOC1=O [Compound 1039] | 1 to 9.9 nM |
| COC(=O)N[C@H](C(=O)N1C[C@H](F)C[C@H]1c1ncc(-c2ccc(C#Cc3ccc4nc([C@@H]5CCCN5C(=O)[C@@H](NC(=O)OC)C(C)C)[nH]c4c3)cc2)[nH]1)C(C)C [Compound 1040] | < 1 nM |
| COC(=O)N[C@H](C(=O)N1CCC[C@H]1c1ncc(-c2ccc(C#Cc3ccc4nc([C@@H]5CCCN5C(=O)[C@@H](NC(=O)OC)C(C)(C)C)[nH]c4c3)cc2)[nH]1)C(C)(C)C [Compound 1041] | < 1 nM |

| SMILES | EC50 |
| --- | --- |
| O=S(=O)(Cc1ccccc1)N1CCC[C@H]1c1ncc(-c2ccc(C#Cc3ccc4nc([C@@H]5CCCN5S(=O)(=O)Cc5ccccc5)[nH]c4c3)cc2)[nH]1 [Compound 1042] | > 1000 nM |
| COC(=O)NC1(C(=O)N2CCC[C@H]2c2ncc(-c3ccc(C#Cc4ccc5nc([C@@H]6CCCN6C(=O)C6(NC(=O)OC)CC6)[nH]c5c4)cc3)[nH]2)CC1 [Compound 1043] | 10 to 999 nM |
| COC(=O)NC1(C(=O)N2CCC[C@H]2c2ncc(-c3ccc(C#Cc4ccc5nc([C@@H]6CCCN6C(=O)C6(NC(=O)OC)CCCC6)[nH]c5c4)cc3)[nH]2)CCCC1 [Compound 1044] | 10 to 999 nM |
| COC(=O)N[C@@H](Cc1ccccc1)C(=O)N1CCC[C@H]1c1ncc(-c2ccc(C#Cc3ccc4nc([C@@H]5CCCN5C(=O)[C@H](Cc5ccccc5)NC(=O)OC)[nH]c4c3)cc2)[nH]1 [Compound 1045] | < 1 nM |
| COC(=O)N[C@@H](CC(N)=O)C(=O)N1CCC[C@H]1c1ncc(-c2ccc(C#Cc3ccc4nc([C@@H]5CCCN5C(=O)[C@H](CC(N)=O)NC(=O)OC)[nH]c4c3)cc2)[nH]1 [Compound 1046] | 1 to 9.9 nM |
| COC(=O)N[C@@H](CCC(=O)O)C(=O)N1CCC[C@H]1c1ncc(-c2ccc(C#Cc3ccc4nc([C@@H]5CCCN5C(=O)[C@H](CCC(=O)O)NC(=O)OC)[nH]c4c3)cc2)[nH]1 [Compound 1047] | 10 to 999 nM |
| COC(=O)N[C@@H](Cc1cnc[nH]1)C(=O)N1CCC[C@H]1c1ncc(-c2ccc(C#Cc3ccc4nc([C@@H]5CCCN5C(=O)[C@H](Cc5cnc[nH]5)NC(=O)OC)[nH]c4c3)cc2)[nH]1 [Compound 1048] | 1 to 9.9 nM |
| COC(=O)NCC(=O)N1CCC[C@H]1c1ncc(-c2ccc(C#Cc3ccc4nc([C@@H]5CCCN5C(=O)CNC(=O)OC)[nH]c4c3)cc2)[nH]1 [Compound 1049] | 10 to 999 nM |
| COC(=O)NC(C)(C)C(=O)N1CCC[C@H]1c1ncc(-c2ccc(C#Cc3ccc4nc([C@@H]5CCCN5C(=O)C(C)(C)NC(=O)OC)[nH]c4c3)cc2)[nH]1 [Compound 1050] | 10 to 999 nM |
| COC(=O)N[C@@H](CCC(N)=O)C(=O)N1CCC[C@H]1c1ncc(-c2ccc(C#Cc3ccc4nc([C@@H]5CCCN5C(=O)[C@H](CCC(N)=O)NC(=O)OC)[nH]c4c3)cc2)[nH]1 [Compound 1051] | 1 to 9.9 nM |
| C(#Cc1ccc2nc([C@@H]3CCCN3Cc3ccccc3)[nH]c2c1)c1ccc(-c2cnc([C@@H]3CCCN3Cc3ccccc3)[nH]2)cc1 [Compound 1052] | > 1000 nM |
| COC(=O)N[C@H](C(=O)N1CCC[C@H]1c1nc2ccc(C#Cc3ccc(-c4cnc([C@@H]5CCCN5C(=O)[C@H](NC(=O)OC)C(C)C)[nH]4)cc3)cc2[nH]1)C(C)C [Compound 1053] | < 1 nM |
| COC(=O)N[C@H](C(=O)N1CCC[C@H]1c1ncc(-c2ccc(C#Cc3ccc4nc([C@@H]5CCCN5C(=O)[C@H](NC(=O)OC)C(C)C)[nH]c4c3)cc2)[nH]1)C(C)C [Compound 1054] | < 1 nM |
| COC(=O)N[C@H](C(=O)N1CCC[C@H]1c1nc2ccc(C#Cc3ccc(-c4cnc([C@@H]5CCCN5)[nH]4)cc3)cc2[nH]1)C(C)C [Compound 1055] | 10 to 999 nM |
| COC(=O)N[C@H](C(=O)N1CCC[C@H]1c1ncc(-c2ccc(C#Cc3ccc4nc([C@@H]5CCCN5)[nH]c4c3)cc2)[nH]1)C(C)C [Compound 1056] | 10 to 999 nM |
| COC(=O)N[C@@H](Cc1c[nH]c2ccccc12)C(=O)N1CCC[C@H]1c1ncc(-c2ccc(C#Cc3ccc4nc([C@@H]5CCCN5C(=O)[C@H](Cc5c[nH]c6ccccc56)NC(=O)OC)[nH]c4c3)cc2)[nH]1 [Compound 1057] | < 1 nM |
| COC(=O)N[C@@H]1CCC[C@H]1C(=O)N1CCC[C@H]1c1ncc(-c2ccc(C#Cc3ccc4nc([C@@H]5CCCN5C(=O)[C@@H]5CCC[C@H]5NC(=O)OC)[nH]c4c3)cc2)[nH]1 [Compound 1058] | 10 to 999 nM |
| COC(=O)N[C@H]1CCC[C@@H]1C(=O)N1CCC[C@H]1c1ncc(-c2ccc(C#Cc3ccc4nc([C@@H]5CCCN5C(=O)[C@H]5CCC[C@@H]5NC(=O)OC)[nH]c4c3)cc2)[nH]1 [Compound 1059] | 10 to 999 nM |
| COC(=O)N[C@H](C(=O)N1CCC[C@H]1c1ncc(-c2cc(C)c(C#Cc3ccc4nc([C@@H]5CCCN5C(=O)[C@@H](NC(=O)OC)C(C)C)[nH]c4c3)c(C)c2)[nH]1)C(C)C [Compound 1060] | < 1 nM |
| COC(=O)N[C@@H](CC(=O)O)C(=O)N1CCC[C@H]1c1ncc(-c2ccc(C#Cc3ccc4nc([C@@H]5CCCN5C(=O)[C@H](CC(=O)O)NC(=O)OC)[nH]c4c3)cc2)[nH]1 [Compound 1061] | 10 to 999 nM |
| COC(=O)N[C@H](C(=O)N1CCSC[C@H]1c1ncc(-c2ccc(C#Cc3ccc4nc([C@@H]5CCCN5C(=O)[C@@H](NC(=O)OC)C(C)C)[nH]c4c3)cc2)[nH]1)C(C)C [Compound 1062] | < 1 nM |
| COC(=O)N1CCC[C@H]1C(=O)N1CCC[C@H]1c1ncc(-c2ccc(C#Cc3ccc4nc([C@@H]5CCCN5C(=O)[C@@H]5CCCN5C(=O)OC)[nH]c4c3)cc2)[nH]1 [Compound 1063] | 10 to 999 nM |
